Where two headings read alike, the source gives them in different places.
Assays:
[1] = biological target: T1, TNKS2 ARC4 (Homo sapiens, UniProt Q9H2K2); design: DSF thermal shift of TNKS2 ARC4, stabilization over DMSO control; settings: binder
T1 construct: ankyrin repeat cluster 4 domain; FRET: 6xHis-mCerulean (CFP) fusion; DSF, NMR, crystal: MBP and His tag cleaved by TEV, residues 487-649 printed for crystal; E. coli BL21(DE3)
T1 sequence (Q9H2K2 487-649): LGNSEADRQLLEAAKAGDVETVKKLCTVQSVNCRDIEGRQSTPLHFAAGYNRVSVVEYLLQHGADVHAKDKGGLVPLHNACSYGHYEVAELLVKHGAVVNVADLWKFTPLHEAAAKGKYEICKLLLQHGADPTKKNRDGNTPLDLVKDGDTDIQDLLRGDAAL
Source text: Given the notable stabilization of the pyrrolone-based compounds from the Commercials Diversity collection, we decided to focus on their common scaffold for compound optimization. Pyrrolone is indeed a versatile moiety that is largely employed for the design of compounds with a variety of biological effects.[55] The nine primary hits were acquired from commercial suppliers, they underwent quality control, additional DSF validation and determination of potency through FRET-based IC50 measurements (Table 1). All the tested compounds include a benzodioxane moiety (R[1]), a [compound left out] group with substitutions in the para position (R[2]), and an R[3] group with an aliphatic character and a tertiary amine. […] In addition, all molecules, except for 7, have IC50 values below 100 µM. Among the nine molecules, 1 performed the best in terms of stabilization of TNKS2 ARC4 and potency. […] In the same position, the presence of a hydrophobic methyl group (3, 4), other halogen substituents (5) and alkoxy groups (6–9) is also tolerated, even if not optimal. […] A SAR investigation was conducted with purchased and synthesized analogues of 1 through FRET-based potency measurements and DSF assay with TNKS2 ARC4 (Table 2, Table S2). All the compounds commercially acquired underwent quality control. […] Changes to the length of the aliphatic chain at R[3] greatly impacts both potency and protein stabilization. […] The diethylamino-based substituent at R[3] […] Compounds 25 and 26 further indicate that the presence of tertiary amine at R[3] is not necessary to achieve binding. […] 5 Figure S2. DSF assay results for validation of primary hits identified in the EU-OPENSCREEN Commercials Diversity Library. (A) and (B) show DSF assay validation measurements of TNKS2 ARC4 with primary hits from the Commercial Diversity Library. Compounds are tested at 100 μM. They are named after their EU-OPENSCREEN identity codes and the identities are available for consultation on ECBD. 1,2 (A) and (B) show results from two independent experiments. For each experiment, each compound was tested with a single measurement, while controls (TNKS2 ARC4 with 100 μM optimized peptide, TNKS2 ARC4 with 100 μM DMSO) are studied in at least four replicates and errors are shown. Moreover, stabilization over the control (TNKS2 ARC4 with DMSO) is indicated (ΔTm °C). […] It was not possible to measure the melting curve of TNKS2 ARC4 in presence of EOS21552, EOS54043, EOS54043.

[2] = biological target: T1, TNKS2 ARC4; experiment: FRET displacement of YFP-REAGDGEE peptide from CFP-ARC; format: binding

Row | SMILES | ΔTm ± SD (°C) [1] | IC50 [2] | IC50 ([2]; pH 7, 100 nM CFP-ARC, 200 nM YFP-peptide, TBM pocket)
1 | COc1cccc(C2C(C(=O)c3ccc4c(c3)OCCO4)=C(O)C(=O)N2CCCN2CCNCC2)c1 (stereo not drawn) [S1] | 0.69 ± 0.30 °C | 250 µM | –
2 | COc1cccc(C2C(C(=O)c3ccc4c(c3)OCCO4)=C(O)C(=O)N2CCCNC(=N)N)c1 (stereo not drawn) [S4] | 1.10 ± 0.12 °C | 142 µM | –
3 | CCN(CC)CCCN1C(=O)C(O)=C(C(=O)c2ccc3ccccc3c2)C1c1ccc(O)cc1 (stereo not drawn) [S6] | -0.06 ± 0.04 °C | > 1000 µM | –
4 | CCN(CC)CCCN1C(=O)C(O)=C(C(=O)c2ccc(OC)c(OC)c2)C1c1ccc(O)cc1 (stereo not drawn) [S7] | 0.04 ± 0.03 °C | > 1000 µM | –
5 | CCN(CC)CCCN1C(=O)C(O)=C(C(=O)c2ccc3c(c2)OCCO3)C1c1ccc(N)cc1 (stereo not drawn) [S9] | 2.78 ± 0.18 °C | 17 µM | –
6 | CCN(CC)CCCN1C(=O)C(O)=C(C(=O)c2ccc(OC)c(OC)c2)C1c1ccccc1 (stereo not drawn) [S10] | -0.28 ± 0.35 °C | – | –
7 | CCN(CC)CCCN1C(=O)C(O)=C(C(=O)c2ccc(OC)c(OC)c2)C1c1cccc(O)c1 (stereo not drawn) [S11] | 0.08 ± 0.40 °C | – | –
8 | CCN(CC)CCCCN1C(=O)C(O)=C(C(=O)c2ccc3c(c2)OCCO3)C1c1ccc(O)cc1 (stereo not drawn) [S12] | 1.97 ± 0.35 °C | 74 µM | –
9 | CCN(CC)CCCN1C(=O)C(O)=C(C(=O)c2ccc3c(c2)OCCO3)C1c1ccc(F)cc1 (stereo not drawn) [compound 2, 2] | 2.38 ± 0.52 °C | 32 µM | –
10 | Cc1ccc(C2C(C(=O)c3ccc4c(c3)OCCO4)=C(O)C(=O)N2CCCN(C)C)cc1 (stereo not drawn) [compound 3, 3] | 2.34 ± 0.30 °C | 51 µM | –
11 | CN(C)CCCN1C(=O)C(O)=C(C(=O)c2ccc3c(c2)OCCO3)C1c1ccc(Br)cc1 (stereo not drawn) [compound 5, 5] | 1.49 ± 0.16 °C | 70 µM | –
12 | CCOc1ccc(C2C(C(=O)c3ccc4c(c3)OCCO4)=C(O)C(=O)N2CCCN2CCOCC2)cc1 (stereo not drawn) [compound 7, 7] | 1.42 ± 0.16 °C | 117 µM | –
13 | CCCCOc1ccc(C2C(C(=O)c3ccc4c(c3)OCCO4)=C(O)C(=O)N2CCCN(C)C)cc1 (stereo not drawn) [compound 8, 8] | 1.65 ± 0.24 °C | 69 µM | –
14 | CCCCOc1ccc(C2C(C(=O)c3ccc4c(c3)OCCO4)=C(O)C(=O)N2CCCN2CCOCC2)cc1 (stereo not drawn) [compound 9, 9] | 1.40 ± 0.18 °C | 81 µM | –
15 | CCN(CC)CCCN1C(=O)C(O)=C(C(=O)c2ccc3c(c2)CC(C)O3)C1c1ccc(O)cc1 (stereo not drawn) [compound 10, 10] | 2.67 ± 0.46 °C | 31 µM | –
16 | CCN(CC)CCCN1C(=O)C(O)=C(C(=O)c2ccc(OCc3ccc(C)cc3)cc2)C1c1ccc(O)cc1 (stereo not drawn) [compound 11, 11] | 0.07 ± 0.07 °C | 552 µM | –
17 | CCN(CC)CCCN1C(=O)C(O)=C(C(=O)c2ccc3c(c2)OCCO3)C1c1cccc(OC)c1 (stereo not drawn) [compound 12, 12] | 4.03 ± 0.39 °C | 11 µM | –
18 | CCN(CC)CCCN1C(=O)C(O)=C(C(=O)c2ccc3c(c2)OCCO3)C1c1cccc(O)c1 (stereo not drawn) [compound 13, 13] | 4.82 ± 0.49 °C | 24 µM | –
19 | CCN(CC)CCN1C(=O)C(O)=C(C(=O)c2ccc3c(c2)OCCO3)C1c1cccc(O)c1 (stereo not drawn) [compound 14, 14] | 1.40 ± 0.36 °C | 139 µM | –
20 | COCCCN1C(=O)C(O)=C(C(=O)c2ccc3c(c2)OCCO3)C1c1cccc(O)c1 (stereo not drawn) [compound 15, 15] | 0.78 ± 0.43 °C | 368 µM | –
21 | CN(C)CCCN1C(=O)C(O)=C(C(=O)c2ccc3c(c2)OCCO3)C1c1cccc(O)c1 (stereo not drawn) [compound 16, 16] | – | 31 µM | –

Row | SMILES | ΔTm ± SD (°C) [1] | IC50 [2] | IC50 ([2]; pH 7, 100 nM CFP-ARC, 200 nM YFP-peptide, TBM pocket)
22 | CN(C)CCCN1C(=O)C(O)=C(C(=O)c2ccc3c(c2)OCCO3)C1c1cccc(O)c1 (stereo not drawn) [compound 16] | 2.96 ± 0.36 °C | – | –
23 | CN(C)CCN1C(=O)C(O)=C(C(=O)c2ccc3c(c2)OCCO3)C1c1cccc(O)c1 (stereo not drawn) [compound 17, 17] | – | 274 µM | –
24 | CN(C)CCN1C(=O)C(O)=C(C(=O)c2ccc3c(c2)OCCO3)C1c1cccc(O)c1 (stereo not drawn) [compound 17] | 0.98 ± 0.32 °C | – | –
25 | O=C(C1=C(O)C(=O)N(CCCN2CCOCC2)C1c1cccc(O)c1)c1ccc2c(c1)OCCO2 (stereo not drawn) [compound 18, 18] | – | 85 µM | –
26 | O=C(C1=C(O)C(=O)N(CCCN2CCOCC2)C1c1cccc(O)c1)c1ccc2c(c1)OCCO2 (stereo not drawn) [compound 18] | 2.25 ± 0.48 °C | – | –
27 | CCN(CC)CCCN1C(=O)C(O)=C(C(=O)c2ccc3c(c2)OCCO3)C1c1ccc(N(C)C)cc1 (stereo not drawn) [compound 19, 19] | – | 10 µM | –
28 | CCN(CC)CCCN1C(=O)C(O)=C(C(=O)c2ccc3c(c2)OCCO3)C1c1ccc(N(C)C)cc1 (stereo not drawn) [compound 19] | 4.14 ± 0.12 °C | – | –
29 | CCN(CC)CCCN1C(=O)C(O)=C(C(=O)c2ccc3c(c2)OCCO3)C1c1ccc(C)cc1 (stereo not drawn) [compound 20, 20] | – | 78 µM | –
30 | CCN(CC)CCCN1C(=O)C(O)=C(C(=O)c2ccc3c(c2)OCCO3)C1c1ccc(C)cc1 (stereo not drawn) [compound 20] | 3.43 ± 0.66 °C | – | –
31 | CCN(CC)CCCN1C(=O)C(O)=C(C(=O)c2ccc3c(c2)OCCO3)C1c1ccccc1 (stereo not drawn) [compound 21, 21] | – | 36 µM | –
32 | CCN(CC)CCCN1C(=O)C(O)=C(C(=O)c2ccc3c(c2)OCCO3)C1c1ccccc1 (stereo not drawn) [compound 21] | 4.73 ± 0.29 °C | – | –
33 | O=C(C1=C(O)C(=O)N(Cc2ccncc2)C1c1ccccc1)c1ccc2c(c1)OCCO2 (stereo not drawn) [compound 22, 22] | – | 325 µM | –
34 | O=C(C1=C(O)C(=O)N(Cc2ccncc2)C1c1ccccc1)c1ccc2c(c1)OCCO2 (stereo not drawn) [compound 22] | 0.48 ± 0.27 °C | – | –
35 | O=C(C1=C(O)C(=O)N(CCN2CCOCC2)C1c1ccccc1)c1ccc2c(c1)OCCO2 (stereo not drawn) [compound 23, 23] | – | – | 411 µM
36 | O=C(C1=C(O)C(=O)N(CCN2CCOCC2)C1c1ccccc1)c1ccc2c(c1)OCCO2 (stereo not drawn) [compound 23] | 0.89 ± 0.33 °C | – | –
37 | CCN(CC)CCCN1C(=O)C(O)=C(C(=O)c2ccc3c(c2)OCCO3)C1c1ccncc1 (stereo not drawn) [compound 24, 24] | – | 56 µM | –
38 | CCN(CC)CCCN1C(=O)C(O)=C(C(=O)c2ccc3c(c2)OCCO3)C1c1ccncc1 (stereo not drawn) [compound 24] | 2.75 ± 0.44 °C | – | –
39 | O=C(C1=C(O)C(=O)N(CCc2ccccc2)C1c1ccc(O)cc1)c1ccc2c(c1)OCCO2 (stereo not drawn) [compound 25, 25] | – | 56 µM | –
40 | O=C(C1=C(O)C(=O)N(CCc2ccccc2)C1c1ccc(O)cc1)c1ccc2c(c1)OCCO2 (stereo not drawn) [compound 25] | 1.80 ± 0.26 °C | – | –
41 | O=C(C1=C(O)C(=O)N(Cc2ccccc2)C1c1ccc(O)cc1)c1ccc2c(c1)OCCO2 (stereo not drawn) [compound 26, 26] | – | 30 µM | –
42 | O=C(C1=C(O)C(=O)N(Cc2ccccc2)C1c1ccc(O)cc1)c1ccc2c(c1)OCCO2 (stereo not drawn) [compound 26] | 0.76 ± 0.33 °C | – | –

Source: doi:10.1101/2025.03.31.646301v1, “Discovery of Tankyrase scaffolding inhibitor specifically targeting the ARC4 peptide binding domain” (biorxiv, 2025)
